Results on 24 compounds are retold here after patent US9321760B2 (Merck Patent GmbH, priority 2011, dated 2016).

As a reminder, the pIC50 is the IC50 on a negative log10 scale, so that one unit is a factor of ten. Read a low pIC50 as a high IC50.

The structures appear in SMILES notation. pIC50: −log10 of the molar value.

Chain of P70S6K (T412E mutant) (P23443 whole entry T412E): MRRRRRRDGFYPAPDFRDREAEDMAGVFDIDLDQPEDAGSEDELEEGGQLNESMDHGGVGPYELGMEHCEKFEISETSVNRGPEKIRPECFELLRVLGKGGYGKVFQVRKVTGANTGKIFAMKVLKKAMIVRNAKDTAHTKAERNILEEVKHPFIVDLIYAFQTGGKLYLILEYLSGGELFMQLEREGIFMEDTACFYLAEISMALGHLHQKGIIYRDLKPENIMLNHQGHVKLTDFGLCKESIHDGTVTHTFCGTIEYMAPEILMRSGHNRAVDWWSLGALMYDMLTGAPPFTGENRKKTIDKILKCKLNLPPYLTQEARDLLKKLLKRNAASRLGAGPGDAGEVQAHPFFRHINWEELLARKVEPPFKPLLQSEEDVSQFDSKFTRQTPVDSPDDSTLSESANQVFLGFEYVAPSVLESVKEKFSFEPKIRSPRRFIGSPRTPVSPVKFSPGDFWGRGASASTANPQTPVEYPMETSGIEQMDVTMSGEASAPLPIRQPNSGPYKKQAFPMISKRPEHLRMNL

The assay has as its target P70S6K (T412E mutant) (Homo sapiens (Human), UniProt P23443, T412E). The experiment in a line: P70S6K enzyme assay. The class given is biochemical. Particulars: 3 nM P70S6K T412E mutant, 24 μM ATP, 1 μM FITC-AHA-AKRRRLSSLRA-OH substrate peptide, 90 min at 25° C. The method in brief:
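IC50s come from mobility-shift separation of phospho-product from FITC-AHA-AKRRRLSSLRA-OH substrate (1 μM) after the reaction was quenched with 10 mM EDTA. The reaction used 3 nM T412E-mutant enzyme and 24 μM ATP, running 90 min at 25° C in 100 mM Hepes pH 7.5 buffer.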
In turn, `NCC(c1ccc(C(F)(F)F)nc1)N1CCN(c2ncnc(N)c2-c2ccc(F)cc2)CC1` (stereo not drawn) [Example 194, 6-{4-[2-Amino-1-(6-trifluoromethyl-pyridin-3-yl)-ethyl]-piperazin-1-yl}-5-(4-fluoro-phenyl)-pyrimidin-4-ylamine] gave a pIC50 of 8.01.

Consider `Cn1cc(-c2c(N)ncnc2N2CCN([C@@H](CN)c3ccc(C(F)(F)F)cc3)CC2)cn1` [Example 42, 6-{4-[(R)-2-Amino-1-(4-trifluoromethyl-phenyl)-ethyl]-piperazin-1-yl}-5-(1-methyl-1H-pyrazol-4-yl)-pyrimidin-4-ylamine], for which the pIC50 is 8.22.

`COc1ccc(C(CN)N2CCN(c3ncnc(N)c3-c3ccc(F)cc3)CC2)cn1` (stereo not drawn) [Example 183, 6-(4-(2-amino-1-(6-methoxypyridin-3-yl)ethyl)piperazin-1-yl)-5-(4-fluorophenyl)pyrimidin-4-amine] had a pIC50 of 8.47.

Regarding `NC[C@@H](c1ccc(C(F)(F)F)cc1)N1CCN(c2ncnc(N)c2-c2cn[nH]c2)CC1` [Example 9, (R)-6-(4-(2-amino-1-(4-(trifluoromethyl)phenyl)ethyl)piperazin-1-yl)-5-(1H-pyrazol-4-yl)pyrimidin-4-amine], the pIC50 was 8.24.

Compound `CC(c1ccc(Cl)cc1OC1CNC1)N1CCN(c2ncnc(N)c2-c2ccc(F)cc2)CC1` (stereo not drawn) [Example 63, 6-(4-{1-[2-(Azetidin-3-yloxy)-4-chloro-phenyl]-ethyl}-piperazin-1-yl)-5-(4-fluoro-phenyl)-pyrimidin-4-ylamine] gave a pIC50 of 6.01.

Compound `Nc1ncnc(N2CCN(C(CN3CCC3)c3ccc4c(c3)CCCC4)CC2)c1-c1ccc(F)cc1` (stereo not drawn) [Example 123, 6-{4-[2-Azetidin-1-yl-1-(5,6,7,8-tetrahydro-naphthalen-2-yl)-ethyl]-piperazin-1-yl}-5-(4-fluoro-phenyl)-pyrimidin-4-ylamine] gave a pIC50 of 6.44. This pIC50 is 0.43 log units higher than that of the compound before.

Compound `Nc1ncnc(N2CCN(C(CN3CCCCC3)c3ccc(F)cc3)CC2)c1Br` (stereo not drawn) [Example 72, 5-Bromo-6{4-[1-(4-fluoro-phenyl)-2-piperidin-1-yl-ethyl]-piperazin-1-yl}-pyrimidin-4-ylamine] had a pIC50 of less than 6.00.

Consider `NCC(c1ccc(Cl)c(F)c1)N1CCN(c2ncnc(N)c2-c2ccc(F)cc2)CC1` (stereo not drawn) [Example 165, 6-{4-[2-Amino-1-(4-chloro-3-fluoro-phenyl)-ethyl]-piperazin-1-yl}-5-(4-fluoro-phenyl)-pyrimidin-4-ylamine], for which the pIC50 was 9.05.

For the compound `NCC(c1ccc(C(F)(F)F)cc1)N1CCN(c2ncnc(N)c2F)CC1` (stereo not drawn) [Example 74, 6-{4-[2-Amino-1-(4-trifluoromethyl-phenyl)-ethyl]-piperazin-1-yl}-5-fluoro-pyrimidin-4-ylamine], the pIC50 was 6.43. Compared with the last compound, the pIC50 is 2.62 log units lower.

Regarding `Nc1ncnc(N2CCN(C(CN3CCCCC3)c3cccc(F)c3)CC2)c1Br` (stereo not drawn) [Example 68, 5-Bromo-6{4-[1-(3-fluoro-phenyl)-2-piperidin-1-yl-ethyl]-piperazin-1-yl}-pyrimidin-4-ylamine], the pIC50 was less than 6.00.

As for `Nc1ncnc(N2CCN(C(CN3CCCC3)c3ccc(C(F)(F)F)cc3)CC2)c1-c1ccc(F)cc1` (stereo not drawn) [Example 10, 5-(4-fluorophenyl)-6-(4-(2-(pyrrolidin-1-yl)-1-(4-(trifluoromethyl)-phenyl)-ethyl)-piperazin-1-yl)-pyrimidin-4-amine], the pIC50 is 7.51.

`CN(C)CC(c1ccc(C(F)(F)F)cc1)N1CCN(c2ncnc(N)c2Br)CC1` (stereo not drawn) [Example 14, 5-bromo-6-(4-(2-(dimethylamino)-1-(4-(trifluoromethyl)phenyl)ethyl)piperazin-1-yl)pyrimidin-4-amine]: the pIC50 was 7.42.

In turn, `Nc1ncnc(N2CCC(Cc3ccc(C(F)(F)F)cc3)CC2)c1Br` [Example 47, 5-Bromo-6{4-(4-trifluoromethylbenzyl)-piperidin-1-yl}pyrimidin-4-amine] showed a pIC50 of 6.02.

Consider `N#CC(c1ccc(C(F)(F)F)cc1)N1CCN(c2ncnc(N)c2Br)CC1` (stereo not drawn) [Example 167, [4-(6-Amino-5-bromo-pyrimidin-4-yl)-piperazin-1-yl]-(4-trifluoromethyl-phenyl)-acetonitrile], for which the pIC50 is less than 6.00.

`NC[C@H](c1ccc(C(F)(F)F)cc1)C1CCN(c2ncnc(N)c2-c2ccc(F)cc2)CC1` [Example 53, 6-{4-[(S)-2-Amino-1-(4-trifluoromethyl-phenyl)-ethyl]-piperidin-1-yl}-5-(4-fluoro-phenyl)-pyrimidin-4-ylamine] had a pIC50 of 8.49.

Consider `Nc1ncnc(N2CCN(C(CN3CCC3)c3cccc(Cl)c3Cl)CC2)c1-c1cn[nH]c1` (stereo not drawn) [Example 126, 6-{4-[2-Azetidin-1-yl-1-(2,3-dichloro-phenyl)-ethyl]-piperazin-1-yl}-5-(1H-pyrazol-4-yl)-pyrimidin-4-ylamine], for which the pIC50 is 6.41.

`Nc1ncnc(N2CCN(C(CN3CCC3)c3ccc4c(c3)CCCC4)CC2)c1-c1cn[nH]c1` (stereo not drawn) [Example 122, 6-{4-[2-Azetidin-1-yl-1-(5,6,7,8-tetrahydro-naphthalen-2-yl)-ethyl]-piperazin-1-yl}-5-(1H-pyrazol-4-yl)-pyrimidin-4-ylamine] had a pIC50 of 6.02.

As to `Nc1ncnc(N2CCN(C(CN3CCC3)c3ccc(Cl)c(Cl)c3)CC2)c1-c1ccc(N2CCNCC2)nc1` (stereo not drawn) [Example 133, 6-{4-[2-Azetidin-1-yl-1-(3,4-dichloro-phenyl)-ethyl]-piperazin-1-yl}-5-(6-piperazin-1-yl-pyridin-3-yl)-pyrimidin-4-ylamine], the pIC50 was less than 4.00.

`Nc1ncnc(N2CCN(C(CN3CCC3)c3ccc(F)cc3Cl)CC2)c1-c1cn[nH]c1` (stereo not drawn) [Example 137, 6-{4-[2-Azetidin-1-yl-1-(2-chloro-4-fluoro-phenyl)-ethyl]-piperazin-1-yl}-5-(1H-pyrazol-4-yl)-pyrimidin-4-ylamine]: the pIC50 was 5.51.

`CCc1c(N)ncnc1N1CCN(C(CN)c2ccc(Cl)cc2)CC1` (stereo not drawn) [Example 178, 6-{4-[2-Amino-1-(4-chloro-phenyl)-ethyl]-piperazin-1-yl}-5-ethyl-pyrimidin-4-ylamine] gave a pIC50 of 7.16.

`N#Cc1ccc([C@@H](CN2CCC2)N2CCN(c3ncnc(N)c3-c3cn[nH]c3)CC2)cc1` [Example 88, 4-((S)-1-{4-[6-Amino-5-(1H-pyrazol-4-yl)-pyrimidin-4-yl]-piperazin-1-yl}-2-azetidin-1-yl-ethyl)-benzonitrile] had a pIC50 of 5.17.

For `CS(=O)(=O)c1ccc(C(C#N)N2CCN(c3ncnc(N)c3-c3cn[nH]c3)CC2)cc1` (stereo not drawn) [Example 184, 2-(4-(6-amino-5-(1H-pyrazol-4-yl)pyrimidin-4-yl)piperazin-1-yl)-2-(4-(methylsulfonyl)phenyl)acetonitrile], the negative-log IC50 (pIC50) was less than 6.00.

The compound `Cn1cc(-c2c(N)ncnc2N2CCN([C@H](CN)c3ccc(C(F)(F)F)cc3)CC2)cn1` [Example 41, 6-{4-[(S)-2-Amino-1-(4-trifluoromethyl-phenyl)-ethyl]-piperazin-1-yl}-5-(1-methyl-1H-pyrazol-4-yl)-pyrimidin-4-ylamine] had a pIC50 of 7.85.

In turn, `N#Cc1c(N)ncnc1N1CCN(C(CN)c2ccc(C(F)(F)F)cc2)CC1` (stereo not drawn) [Example 36, 4-Amino-6-{4-[2-amino-1-(4-trifluoromethyl-phenyl)-ethyl]-piperazin-1-yl}-pyrimidine-5-carbonitrile] had a pIC50 of 7.85.
